Source: ChEMBL document CHEMBL2412991, “Catalytic asymmetric total synthesis of (S)-(-)-zearalenone, a novel lipoxygenase inhibitor” (Bioorg Med Chem, 2013)

Molecular target: T1, Seed linoleate 13S-lipoxygenase-1 (Glycine max, UniProt P08170)
T1 sequence (P08170 whole entry): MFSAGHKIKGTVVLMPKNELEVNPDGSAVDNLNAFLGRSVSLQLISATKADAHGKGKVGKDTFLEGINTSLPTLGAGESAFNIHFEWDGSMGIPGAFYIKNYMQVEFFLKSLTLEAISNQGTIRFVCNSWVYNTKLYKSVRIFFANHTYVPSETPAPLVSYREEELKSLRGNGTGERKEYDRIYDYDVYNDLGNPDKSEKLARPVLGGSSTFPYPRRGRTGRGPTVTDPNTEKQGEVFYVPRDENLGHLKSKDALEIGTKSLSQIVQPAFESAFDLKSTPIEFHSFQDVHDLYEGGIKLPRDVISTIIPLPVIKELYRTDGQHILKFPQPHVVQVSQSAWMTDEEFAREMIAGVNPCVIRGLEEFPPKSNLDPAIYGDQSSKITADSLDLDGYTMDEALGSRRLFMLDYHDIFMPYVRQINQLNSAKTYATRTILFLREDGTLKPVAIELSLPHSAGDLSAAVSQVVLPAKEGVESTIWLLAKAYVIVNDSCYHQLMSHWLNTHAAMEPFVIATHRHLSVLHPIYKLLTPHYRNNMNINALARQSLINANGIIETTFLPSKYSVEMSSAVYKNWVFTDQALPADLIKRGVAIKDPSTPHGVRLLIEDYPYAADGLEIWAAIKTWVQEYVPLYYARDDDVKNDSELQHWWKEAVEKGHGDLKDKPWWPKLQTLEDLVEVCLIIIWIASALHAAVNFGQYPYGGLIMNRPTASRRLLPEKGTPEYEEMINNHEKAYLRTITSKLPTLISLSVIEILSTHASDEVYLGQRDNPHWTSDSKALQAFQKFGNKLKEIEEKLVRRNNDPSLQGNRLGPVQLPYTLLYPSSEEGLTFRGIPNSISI
Test: Inhibition of soybean lipoxygenase-1 assessed as inhibition of conversion of linoleic acid into hydroperoxy […] acid preincubated for 10 mins before substrate addition measured over 20 mins by spectrophotometric assay

C[C@H]1CCCC(=O)CCC/C=C/c2cc(O)cc(O)c2C(=O)O1 [ZEARALENONE]
IC50: 51 µM
